Reference: PubChem BioAssay AID256 (DTP/NCI, 2004)
Where “and” joins values, the source holds several entries; their conditions need not be identical. Identical values can stand only once. Inconclusive results and toxic doses are left out. How the source made its calls: active means survival T/C of 150% or more; inactive means T/C below 125% in these data.

System: CD2F1 mice, L1210 leukemia ip, survival T/C
Assay: NCI In Vivo Anticancer Drug Screen. Data for tumor model L1210 Leukemia (intraperitoneal) in CD2F1 (CDF1) mice
Conditions: higher = longer survival
Method in brief: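 Antitumor effect is scored in animals hosting a serially transplanted tumor. Values compare compound-dosed animals against vehicle-only controls as a simple quotient.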

[1] = endpoint: mean survival time, dose: 100.0 mg/kg/injection, schedule: Q04DX003 (ip), vehicle: saline
[2] = endpoint: mean survival time, dose: 200.0 mg/kg/injection, schedule: Q04DX003 (ip), vehicle: saline
[3] = endpoint: mean survival time, dose: 400.0 mg/kg/injection, schedule: Q04DX003 (ip), vehicle: saline
[4] = endpoint: mean survival time, dose: 100.0 mg/kg/injection, schedule: Q01DX001 (ip), vehicle: saline with Tween-80
[5] = endpoint: mean survival time, dose: 200.0 mg/kg/injection, schedule: Q01DX001 (ip), vehicle: saline with Tween-80
[6] = endpoint: mean survival time, dose: 400.0 mg/kg/injection, schedule: Q01DX001 (ip), vehicle: saline with Tween-80
[7] = endpoint: mean survival time, dose: 50.0 mg/kg/injection, schedule: Q01DX009 (ip), vehicle: saline with Tween-80
[8] = endpoint: mean survival time, dose: 100.0 mg/kg/injection, schedule: Q01DX009 (ip), vehicle: saline with Tween-80
[9] = endpoint: mean survival time, dose: 200.0 mg/kg/injection, schedule: Q01DX009 (ip), vehicle: saline with Tween-80
[10] = endpoint: mean survival time, dose: 12.5 mg/kg/injection, schedule: Q01DX009 (ip), vehicle: water
[11] = endpoint: mean survival time, dose: 25.0 mg/kg/injection, schedule: Q01DX009 (ip), vehicle: water
[12] = endpoint: mean survival time, dose: 50.0 mg/kg/injection, schedule: Q01DX009 (ip), vehicle: water
[13] = endpoint: mean survival time, dose: 100.0 mg/kg/injection, schedule: Q01DX009 (ip), vehicle: water
[14] = endpoint: mean survival time, dose: 200.0 mg/kg/injection, schedule: Q01DX009 (ip), vehicle: water
[15] = endpoint: mean survival time, dose: 100.0 mg/kg/injection, schedule: Q04DX002 (ip), vehicle: saline with Tween-80
[16] = endpoint: mean survival time, dose: 200.0 mg/kg/injection, schedule: Q04DX002 (ip), vehicle: saline with Tween-80
[17] = endpoint: mean survival time, dose: 400.0 mg/kg/injection, schedule: Q04DX002 (ip), vehicle: saline with Tween-80
[18] = endpoint: mean survival time, dose: 400.0 mg/kg/injection, schedule: Q01DX009 (ip), vehicle: saline with Tween-80
[19] = endpoint: mean survival time, dose: 100.0 mg/kg/injection, schedule: Q04DX003 (ip), vehicle: saline with Tween-80
[20] = endpoint: mean survival time, dose: 200.0 mg/kg/injection, schedule: Q04DX003 (ip), vehicle: saline with Tween-80
[21] = endpoint: mean survival time, dose: 400.0 mg/kg/injection, schedule: Q04DX003 (ip), vehicle: saline with Tween-80

Measured: T/C

CSc1ncnc2c1c1c(N)ncnc1n2C1OC(CO)C(O)C1O (stereo not drawn)
inactive: endpoint: mean survival time, dose: 12.5 mg/kg/injection, schedule: Q01DX005 (ip), vehicle: other 107 % of control | endpoint: mean survival time, dose: 25.0 mg/kg/injection, schedule: Q01DX005 (ip), vehicle: other 101 % of control | endpoint: mean survival time, dose: 50.0 mg/kg/injection, schedule: Q01DX005 (ip), vehicle: other 95 % of control | endpoint: mean survival time, dose: 100.0 mg/kg/injection, schedule: Q01DX005 (ip), vehicle: other 103 % of control | endpoint: mean survival time, dose: 200.0 mg/kg/injection, schedule: Q01DX005 (ip), vehicle: other 109 % of control

Cc1cc(C)c2c(C#N)cn(-c3ccccc3Cl)c2n1
inactive: [1] 101 % of control | [2] 101 % of control | [3] 97 % of control

Nc1nc(=O)n(CCCOc2cccc([N+](=O)[O-])c2)cc1-c1ccccc1
inactive: [4] 96 % of control | [5] 87 % of control | [6] 87 % of control

CC(=O)OCC1OC(n2ncc3c(N4CC4)ncnc32)C(OC(C)=O)C1OC(C)=O (stereo not drawn)
inactive: endpoint: mean survival time, dose: 25.0 mg/kg/injection, schedule: Q01DX005 (ip), vehicle: distilled water + Tween-80 97 % of control | endpoint: mean survival time, dose: 50.0 mg/kg/injection, schedule: Q01DX005 (ip), vehicle: distilled water + Tween-80 99 % of control | endpoint: mean survival time, dose: 100.0 mg/kg/injection, schedule: Q01DX005 (ip), vehicle: distilled water + Tween-80 101 % of control | endpoint: mean survival time, dose: 200.0 mg/kg/injection, schedule: Q01DX005 (ip), vehicle: distilled water + Tween-80 100 % of control | endpoint: mean survival time, dose: 400.0 mg/kg/injection, schedule: Q01DX005 (ip), vehicle: distilled water + Tween-80 97 % of control

COC(=O)C(C)C1CCC2C3CCC4CC(OC(C)=O)CCC4(C)C3CC(OC(C)=O)C12C (stereo not drawn)
inactive: [4] 95 % of control | [5] 103 % of control | [6] 94 % of control

CC(C)N1CCOCC1
inactive: endpoint: mean survival time, dose: 100.0 mg/kg/injection, schedule: Q04DX003 (ip), vehicle: acetone 100 % of control

Cc1ccc(C(=O)C[n+]2cccc3ccccc32)c(C)c1
inactive: endpoint: mean survival time, dose: 6.25 mg/kg/injection, schedule: Q01DX009 (ip), vehicle: saline with Tween-80 101 % of control | endpoint: mean survival time, dose: 12.5 mg/kg/injection, schedule: Q01DX009 (ip), vehicle: saline with Tween-80 94 % of control | endpoint: mean survival time, dose: 25.0 mg/kg/injection, schedule: Q01DX009 (ip), vehicle: saline with Tween-80 95 % of control

CSc1ncnc2cn(C3OC(CO)C(O)C3O)nc12 (stereo not drawn)
inactive: endpoint: mean survival time, dose: 6.25 mg/kg/injection, schedule: Q01DX005 (ip), vehicle: water 96 % of control | endpoint: mean survival time, dose: 12.5 mg/kg/injection, schedule: Q01DX005 (ip), vehicle: water 100 % of control | endpoint: mean survival time, dose: 25.0 mg/kg/injection, schedule: Q01DX005 (ip), vehicle: water 114 % of control | endpoint: mean survival time, dose: 50.0 mg/kg/injection, schedule: Q01DX005 (ip), vehicle: water 92 % of control | endpoint: mean survival time, dose: 100.0 mg/kg/injection, schedule: Q01DX005 (ip), vehicle: water 100 % of control | endpoint: mean survival time, dose: 200.0 mg/kg/injection, schedule: Q01DX005 (ip), vehicle: water 86 % of control

CCCC(O)(CC)C1CCCC1C (stereo not drawn)
inactive: [7] 100 % of control | [8] 95 % of control | [9] 100 % of control

CCOC(=O)C1C(=O)N(C)C(=O)N1C (stereo not drawn)
inactive: endpoint: mean survival time, dose: 5.56 mg/kg/injection, schedule: Q01DX009 (ip), vehicle: water 89 % of control | endpoint: mean survival time, dose: 8.33 mg/kg/injection, schedule: Q01DX009 (ip), vehicle: water 90 % of control | [10] 121 % of control and 92 % of control | [11] 95 % of control | [12] 93 % of control | [13] 95 % of control | [14] 98 % of control

CCCCCCCCCCCCCCCC(=O)Nc1ccccc1CC
inactive: [15] 91 % of control | [16] 95 % of control | [17] 103 % of control

COC(=O)CC(CC(=O)c1ccccc1)c1ccccc1 (stereo not drawn)
inactive: endpoint: mean survival time, dose: 50.0 mg/kg/injection, schedule: Q01DX009 (ip), vehicle: distilled water + Tween-80 94 % of control | [7] 95 % of control and 98 % of control | endpoint: mean survival time, dose: 100.0 mg/kg/injection, schedule: Q01DX009 (ip), vehicle: distilled water + Tween-80 90 % of control | [8] 100 % of control and 106 % of control | endpoint: mean survival time, dose: 200.0 mg/kg/injection, schedule: Q01DX009 (ip), vehicle: distilled water + Tween-80 90 % of control | [9] 97 % of control and 100 % of control | endpoint: mean survival time, dose: 400.0 mg/kg/injection, schedule: Q01DX009 (ip), vehicle: distilled water + Tween-80 90 % of control | [18] 97 % of control and 98 % of control

CCOc1cccc(Cc2cn(Cc3cccc(NC(=O)c4ccc(S(=O)(=O)F)cc4)c3)c(=O)[nH]c2=O)c1
inactive: endpoint: mean survival time, dose: 75.0 mg/kg/injection, schedule: Q01DX001 (ip), vehicle: saline with Tween-80 100 % of control | endpoint: mean survival time, dose: 150.0 mg/kg/injection, schedule: Q01DX001 (ip), vehicle: saline with Tween-80 97 % of control

CC(=O)Nc1cscc1NC(C)=O
inactive: endpoint: median survival time, dose: 12.5 mg/kg/injection, schedule: Q01DX009 (ip), vehicle: saline with Tween-80 100 % of control | endpoint: median survival time, dose: 25.0 mg/kg/injection, schedule: Q01DX009 (ip), vehicle: saline with Tween-80 105 % of control and 111 % of control | endpoint: median survival time, dose: 50.0 mg/kg/injection, schedule: Q01DX009 (ip), vehicle: saline with Tween-80 91 % of control and 103 % of control | endpoint: median survival time, dose: 100.0 mg/kg/injection, schedule: Q01DX009 (ip), vehicle: saline with Tween-80 100 % of control and 101 % of control | endpoint: median survival time, dose: 200.0 mg/kg/injection, schedule: Q01DX009 (ip), vehicle: saline with Tween-80 102 % of control and 103 % of control | endpoint: median survival time, dose: 400.0 mg/kg/injection, schedule: Q01DX009 (ip), vehicle: saline with Tween-80 103 % of control and 108 % of control

COC1CC(N)C(O)C(C)O1 (stereo not drawn)
inactive: [10] 103 % of control | [11] 101 % of control | [12] 107 % of control | [13] 105 % of control | [14] 92 % of control

O=S1(=O)c2ccccc2C(=NO)c2ccccc21
inactive: [1] 92 % of control | [2] 96 % of control | [3] 106 % of control

COC(=O)Nc1nc2ccccc2[nH]1
inactive: [4] 98 % of control | [5] 91 % of control | [6] 96 % of control | endpoint: mean survival time, dose: 500.0 mg/kg/injection, schedule: Q04DX003 (ip), vehicle: saline with Tween-80 119 % of control | endpoint: mean survival time, dose: 600.0 mg/kg/injection, schedule: Q04DX003 (ip), vehicle: saline with Tween-80 122 % of control | endpoint: mean survival time, dose: 800.0 mg/kg/injection, schedule: Q04DX003 (ip), vehicle: saline with Tween-80 111 % of control

O=C1NC2C=CC3C=CC=CC2C13 (stereo not drawn)
inactive: endpoint: median survival time, dose: 25.0 mg/kg/injection, schedule: Q04DX002 (ip), vehicle: saline with Tween-80 100 % of control | endpoint: median survival time, dose: 50.0 mg/kg/injection, schedule: Q04DX002 (ip), vehicle: saline with Tween-80 100 % of control | endpoint: median survival time, dose: 100.0 mg/kg/injection, schedule: Q04DX002 (ip), vehicle: saline with Tween-80 100 % of control | endpoint: median survival time, dose: 200.0 mg/kg/injection, schedule: Q04DX002 (ip), vehicle: saline with Tween-80 100 % of control

CCc1ccc(O[Si](C)(C)C)cc1
inactive: [19] 97 % of control | [20] 99 % of control

O=[N+]([O-])c1cccc(S(=O)(=O)Oc2ccc(-c3ccccc3)cc2)c1
inactive: [8] 87 % of control | [9] 91 % of control | [18] 89 % of control

NC(=O)c1[nH]cnc1/N=N/N(CCO)Cc1ccccc1
inactive: [19] 98 % of control | [20] 95 % of control | [21] 95 % of control

NNC(=O)CCCCCCCCCCCCCO
inactive: endpoint: mean survival time, dose: 50.0 mg/kg/injection, schedule: Q01DX001 (ip), vehicle: saline with Tween-80 98 % of control | [4] 101 % of control | [5] 101 % of control

COc1ccc(/C=C/c2ccc([N+](=O)[O-])cc2)cc1
inactive: [19] 102 % of control | [20] 100 % of control | [21] 100 % of control

C=CCC1(CO)CCCCC1O (stereo not drawn)
inactive: [15] 96 % of control | [16] 100 % of control | [17] 92 % of control

Nc1ncnc2c1ncn2CCC(CO)CO
inactive: endpoint: mean survival time, dose: 200.0 mg/kg/injection, schedule: Q01DX001 (ip), vehicle: saline 102 % of control | endpoint: mean survival time, dose: 400.0 mg/kg/injection, schedule: Q01DX001 (ip), vehicle: saline 107 % of control

CC(=O)NC1C(OC(C)=O)C(OC(C)=O)C(OC(C)=O)C(OC(C)=O)C1OC(C)=O (stereo not drawn)
inactive: [4] 97 % of control | [5] 93 % of control | [6] 93 % of control
